Test results published in PubChem BioAssay AID266 (DTP/NCI, 2004).
Values joined by “and” are separate entries in the source; they are usually repeats but may differ in a detail not shown here. Equal entries are not always repeated. Records with an inconclusive call do not appear.

System: Nude mice, LX-1 lung xenograft intrarenal, tumor weight T/C
Assay: NCI In Vivo Anticancer Drug Screen. Data for tumor model Human Lung LX-1 Xenograft (intrarenal inoculation) in NU/NU BALB/C (nude) mice
Settings: endpoint: mean tumor weight change, higher = larger tumour
Method: The antitumor activity of compounds was measured in mice bearing transplantable tumors. Survival or tumor size were measured and the results are expressed as the measurement made in the treated group (T) divided by the measurement made in the vehicle treated control group (C). The tumor model used in this assay is Human Lung LX-1 Xenograft (intrarenal inoculation) in NU/NU BALB/C (nude) mice

[1] = dose: 300.0 mg/kg/injection, schedule: Q04DX003 (sc), vehicle: saline with Tween-80
[2] = dose: 600.0 mg/kg/injection, schedule: Q04DX003 (sc), vehicle: saline with Tween-80
[3] = dose: 1200.0 mg/kg/injection, schedule: Q04DX003 (sc), vehicle: saline with Tween-80
[4] = dose: 2400.0 mg/kg/injection, schedule: Q04DX003 (sc), vehicle: saline with Tween-80
[5] = dose: 150.0 mg/kg/injection, schedule: Q04DX003 (ip), vehicle: Klucel (hydroxypropylcellulose) (HPC)
[6] = dose: 100.0 mg/kg/injection, schedule: Q01DX010 (sc), vehicle: saline with Tween-80
[7] = dose: 200.0 mg/kg/injection, schedule: Q01DX010 (sc), vehicle: saline with Tween-80
[8] = dose: 5.0 mg/kg/injection, schedule: Q04DX003 (sc), vehicle: saline

O=NN(CCCl)C(=O)NCCO
T/C (dose: 3.13 mg/kg/injection, schedule: Q04DX003 (sc), vehicle: water): 113 % of control
T/C (dose: 6.25 mg/kg/injection, schedule: Q04DX003 (sc), vehicle: water): 26 % of control
T/C (dose: 12.5 mg/kg/injection, schedule: Q04DX003 (sc), vehicle: water): -25 % of control

C=CC(C)NC(=S)NNC(=S)NC (configuration not stated)
T/C (dose: 300.0 mg/kg/injection, schedule: Q04DX003 (sc), vehicle: saline + alcohol): 115 % of control
T/C (dose: 600.0 mg/kg/injection, schedule: Q04DX003 (sc), vehicle: saline + alcohol): 87 % of control
T/C (dose: 1200.0 mg/kg/injection, schedule: Q04DX003 (sc), vehicle: saline + alcohol): 87 % of control
T/C (dose: 2400.0 mg/kg/injection, schedule: Q04DX003 (sc), vehicle: saline + alcohol): 78 % of control

CC(=O)OC1C(O)C(C)OC(OC2C(OC(=O)C3CCC4C(C3)OC3(CC(OC(=O)/C=C/c5ccccc5)C(C)CO3)C43CO3)OC(C)C(O)C2OC(C)=O)C1O (configuration not stated)
T/C (dose: 37.5 mg/kg/injection, schedule: Q04DX003 (sc), vehicle: distilled water + Tween-80): 121 % of control
T/C (dose: 75.0 mg/kg/injection, schedule: Q04DX003 (sc), vehicle: distilled water + Tween-80): 63 % of control

CC(/C=C/c1ccccc1)=Nc1ccccc1
T/C [1]: 63 % of control
T/C [2]: 108 % of control
T/C [3]: 83 % of control
T/C [4]: 100 % of control

CC(C)CCCCCCCCCCCCC(=O)NCC(=O)NC1C(O)C(O)C(Nc2ncnc3nc[nH]c23)OC1C(O)CO (configuration not stated)
T/C (dose: 0.4 mg/kg/injection, schedule: Q01DX010 (sc), vehicle: saline): 98 % of control
T/C (dose: 0.8 mg/kg/injection, schedule: Q01DX010 (sc), vehicle: saline): 24 % of control

[Na+]
T/C (dose: 150.0 mg/kg/injection, schedule: Q04DX003 (ip), vehicle: water): 68 % of control
T/C (dose: 600.0 mg/kg/injection, schedule: Q04DX003 (ip), vehicle: water): 82 % of control
T/C (dose: 1200.0 mg/kg/injection, schedule: Q04DX003 (ip), vehicle: water): 79 % of control

O=[N+]([O-])O.O=[N+]([O-])O.[NH-]C1CCCCC1[NH-].[Pt+2] (configuration not stated)
T/C (dose: 0.5 mg/kg/injection, schedule: Q01DX010 (sc), vehicle: dextrose): 76 % of control
T/C (dose: 1.0 mg/kg/injection, schedule: Q01DX010 (sc), vehicle: dextrose): 80 % of control

O=C1C2CC(Cl)C(SSC3CC4C(=O)N(SC(Cl)(Cl)C(Cl)Cl)C(=O)C4CC3Cl)CC2C(=O)N1SC(Cl)(Cl)C(Cl)Cl (configuration not stated)
T/C (dose: 75.0 mg/kg/injection, schedule: Q04DX003 (ip), vehicle: Klucel (hydroxypropylcellulose) (HPC)): 83 % of control
T/C [5]: 102 % of control
T/C (dose: 300.0 mg/kg/injection, schedule: Q04DX003 (ip), vehicle: Klucel (hydroxypropylcellulose) (HPC)): 76 % of control
T/C (dose: 600.0 mg/kg/injection, schedule: Q04DX003 (ip), vehicle: Klucel (hydroxypropylcellulose) (HPC)): 48 % of control

COc1ccc(S(=O)(=O)N/N=C/C(=O)O)cc1
T/C (dose: 50.0 mg/kg/injection, schedule: Q01DX010 (sc), vehicle: saline with Tween-80): 210 % of control
T/C [6]: 119 % of control
T/C [7]: 72 % of control

COCC(O)Cn1ccnc1[N+](=O)[O-] (configuration not stated)
T/C (dose: 2400.0 mg/kg/injection, schedule: Q04DX003 (sc), vehicle: suspension in saline): 104 % of control

Nc1ncn(C2OC(CO)C(O)C2O)c(=O)n1 (configuration not stated)
T/C [8]: 47 % of control
T/C (dose: 10.0 mg/kg/injection, schedule: Q04DX003 (sc), vehicle: saline): 39 % of control
T/C (dose: 100.0 mg/kg/injection, schedule: Q04DX003 (sc), vehicle: saline): 34 % of control
T/C (dose: 200.0 mg/kg/injection, schedule: Q04DX003 (sc), vehicle: saline): 18 % of control and 28 % of control
T/C (dose: 400.0 mg/kg/injection, schedule: Q04DX003 (sc), vehicle: saline): 15 % of control and 32 % of control
T/C (dose: 1600.0 mg/kg/injection, schedule: Q04DX003 (sc), vehicle: saline): -72 % of control

C/C=C(\C)c1cc(=O)c2c(C)cc3c(c2o1)C(=O)c1c(O)c(C2CC(C)(N(C)C)C(OC(C)=O)C(C)O2)cc(C2CC(N(C)C)C(O)C(C)O2)c1C3=O (configuration not stated)
T/C (dose: 0.63 mg/kg/injection, schedule: Q04DX003 (sc), vehicle: saline): 68 % of control
T/C (dose: 1.25 mg/kg/injection, schedule: Q04DX003 (sc), vehicle: saline): 48 % of control
T/C (dose: 2.5 mg/kg/injection, schedule: Q04DX003 (sc), vehicle: saline): 45 % of control
T/C [8]: 51 % of control

c1ccc2c(NCCCCCCCCNc3c4ccccc4nc4ccccc34)c3ccccc3nc2c1
T/C (dose: 5.0 mg/kg/injection, schedule: Q01DX010 (sc), vehicle: Klucel (hydroxypropylcellulose) (HPC)): 60 % of control
T/C (dose: 10.0 mg/kg/injection, schedule: Q01DX010 (sc), vehicle: Klucel (hydroxypropylcellulose) (HPC)): 76 % of control
T/C (dose: 20.0 mg/kg/injection, schedule: Q01DX010 (sc), vehicle: Klucel (hydroxypropylcellulose) (HPC)): 23 % of control
T/C (dose: 40.0 mg/kg/injection, schedule: Q01DX010 (sc), vehicle: Klucel (hydroxypropylcellulose) (HPC)): 36 % of control

CC(C)CCC(=O)c1ccoc1
T/C (dose: 0.75 mg/kg/injection, schedule: Q01DX010 (ip), vehicle: saline with Tween-80): 123 % of control
T/C (dose: 3.0 mg/kg/injection, schedule: Q01DX010 (ip), vehicle: saline with Tween-80): 71 % of control
T/C (dose: 6.0 mg/kg/injection, schedule: Q01DX010 (ip), vehicle: saline with Tween-80): 73 % of control

COc1ccc2ccccc2c1C1NC(=O)c2ccccc2N1 (configuration not stated)
T/C (dose: 300.0 mg/kg/injection, schedule: Q04DX003 (sc), vehicle: Klucel (hydroxypropylcellulose) (HPC)): 113 % of control
T/C (dose: 600.0 mg/kg/injection, schedule: Q04DX003 (sc), vehicle: Klucel (hydroxypropylcellulose) (HPC)): 78 % of control
T/C (dose: 1200.0 mg/kg/injection, schedule: Q04DX003 (sc), vehicle: Klucel (hydroxypropylcellulose) (HPC)): 83 % of control
T/C (dose: 2400.0 mg/kg/injection, schedule: Q04DX003 (sc), vehicle: Klucel (hydroxypropylcellulose) (HPC)): 83 % of control

O=S(CCCl)CCCl
T/C (dose: 25.0 mg/kg/injection, schedule: Q04DX003 (sc), vehicle: Klucel (hydroxypropylcellulose) (HPC)): 81 % of control
T/C (dose: 50.0 mg/kg/injection, schedule: Q04DX003 (sc), vehicle: Klucel (hydroxypropylcellulose) (HPC)): 76 % of control

Cc1cc2nc3[nH]c4ccccc4c3nc2cc1C
T/C (dose: 100.0 mg/kg/injection, schedule: Q01DX010 (sc), vehicle: saline): 88 % of control
T/C (dose: 200.0 mg/kg/injection, schedule: Q01DX010 (sc), vehicle: saline): 190 % of control
T/C (dose: 400.0 mg/kg/injection, schedule: Q01DX010 (sc), vehicle: saline): 92 % of control
T/C (dose: 800.0 mg/kg/injection, schedule: Q01DX010 (sc), vehicle: saline): 97 % of control

O=C(CCCN1CCC(C(O)c2ccc(F)cc2)CC1)c1ccc(F)cc1 (configuration not stated)
T/C (dose: 12.5 mg/kg/injection, schedule: Q04DX003 (ip), vehicle: saline with Tween-80): 64 % of control
T/C (dose: 25.0 mg/kg/injection, schedule: Q04DX003 (ip), vehicle: saline with Tween-80): 68 % of control
T/C (dose: 50.0 mg/kg/injection, schedule: Q04DX003 (ip), vehicle: saline with Tween-80): 69 % of control

Nc1ncnc2c(C3OC(CO)C(O)C3O)[nH]nc12 (configuration not stated)
T/C (dose: 75.0 mg/kg/injection, schedule: Q04DX003 (sc), vehicle: suspension in saline): 83 % of control
T/C (dose: 150.0 mg/kg/injection, schedule: Q04DX003 (sc), vehicle: suspension in saline): 37 % of control

Oc1c(Cl)cc(Cl)cc1C=NCCSc1ccc(Cl)cc1
T/C [5]: 71 % of control
T/C (dose: 1200.0 mg/kg/injection, schedule: Q04DX003 (ip), vehicle: Klucel (hydroxypropylcellulose) (HPC)): 70 % of control

COc1ccc2cc1Oc1ccc(cc1)C[C@H]1c3cc(c(OC)cc3CCN1C)Oc1c(OC)c(OC)cc3c1[C@H](C2)N(C)CC3
T/C [6]: 110 % of control
T/C [7]: 122 % of control

CCCCCc1cc(O)c2c(c1)OC(C)(C)[C@@H]1CCC(C)=C[C@@H]21
T/C (dose: 150.0 mg/kg/injection, schedule: Q04DX003 (sc), vehicle: other): 94 % of control
T/C (dose: 300.0 mg/kg/injection, schedule: Q04DX003 (sc), vehicle: other): 91 % of control
T/C (dose: 600.0 mg/kg/injection, schedule: Q04DX003 (sc), vehicle: other): 76 % of control
T/C (dose: 1200.0 mg/kg/injection, schedule: Q04DX003 (sc), vehicle: other): 90 % of control

CC(=O)NC(Cc1ccc(F)cc1)C(=O)O (configuration not stated)
T/C [1]: 112 % of control
T/C [2]: 71 % of control
T/C [3]: 91 % of control
T/C [4]: 107 % of control
